According to patent publication EP4667458A1 (Kanaph Therapeutics Inc., priority 2023, dated 2024):
pIC50: −log10 of the molar value.

Biological target: T1, KRAS^G12C::SOS1 (Homo sapiens, UniProt Q07889)
T1 sequence (Q07889 1-1333): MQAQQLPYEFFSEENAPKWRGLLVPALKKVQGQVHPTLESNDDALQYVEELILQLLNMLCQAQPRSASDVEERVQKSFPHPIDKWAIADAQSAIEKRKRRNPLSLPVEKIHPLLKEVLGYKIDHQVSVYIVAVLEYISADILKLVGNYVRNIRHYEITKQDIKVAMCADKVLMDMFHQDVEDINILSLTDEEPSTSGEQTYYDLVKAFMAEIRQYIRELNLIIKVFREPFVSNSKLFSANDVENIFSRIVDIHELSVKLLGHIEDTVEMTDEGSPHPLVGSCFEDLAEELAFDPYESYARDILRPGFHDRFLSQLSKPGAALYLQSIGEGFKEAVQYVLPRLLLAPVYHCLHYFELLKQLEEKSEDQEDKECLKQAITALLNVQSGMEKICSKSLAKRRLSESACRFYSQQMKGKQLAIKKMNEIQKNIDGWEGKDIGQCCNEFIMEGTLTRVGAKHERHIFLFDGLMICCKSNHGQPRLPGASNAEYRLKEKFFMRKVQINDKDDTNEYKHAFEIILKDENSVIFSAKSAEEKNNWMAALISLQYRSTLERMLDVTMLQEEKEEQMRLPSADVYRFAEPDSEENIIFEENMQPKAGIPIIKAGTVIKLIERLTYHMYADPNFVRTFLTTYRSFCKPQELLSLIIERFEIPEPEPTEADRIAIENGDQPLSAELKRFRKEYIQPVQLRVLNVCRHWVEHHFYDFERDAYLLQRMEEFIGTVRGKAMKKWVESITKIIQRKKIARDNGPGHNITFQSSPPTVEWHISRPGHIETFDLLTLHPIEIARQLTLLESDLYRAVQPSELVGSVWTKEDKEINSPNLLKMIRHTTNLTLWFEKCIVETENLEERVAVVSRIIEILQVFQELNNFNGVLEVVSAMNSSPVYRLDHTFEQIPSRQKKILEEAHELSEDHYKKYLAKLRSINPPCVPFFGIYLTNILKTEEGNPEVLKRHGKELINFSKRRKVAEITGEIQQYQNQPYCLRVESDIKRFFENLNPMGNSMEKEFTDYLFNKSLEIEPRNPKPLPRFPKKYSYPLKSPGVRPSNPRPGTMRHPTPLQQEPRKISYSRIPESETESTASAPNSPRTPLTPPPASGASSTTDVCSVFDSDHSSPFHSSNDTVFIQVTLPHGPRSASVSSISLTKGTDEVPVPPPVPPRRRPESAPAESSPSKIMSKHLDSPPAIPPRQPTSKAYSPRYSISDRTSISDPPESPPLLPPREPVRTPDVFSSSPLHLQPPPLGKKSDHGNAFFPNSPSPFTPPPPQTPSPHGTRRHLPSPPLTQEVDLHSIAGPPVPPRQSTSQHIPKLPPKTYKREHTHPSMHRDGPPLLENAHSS
Assay: KRAS G12C::SOS1 protein-protein interaction (PPI) inhibition assay (HTRF binding kit)

pIC50	Compound
> 6.00	COc1cnccc1-n1nc(C(=O)N[C@H](C)c2cc(N)cc(C(F)(F)F)c2)ccc1=O [Example 145, N-[(1R)-1-[3-amino-5-(trifluoromethyl)phenyl]ethyl]-1-(3-methoxy-4-pyridyl)-6-oxo-pyridazine-3-carboxamide]
> 6.00	C[C@@H](NC(=O)c1ccc(=O)n(-c2cccnc2)n1)c1cccc(C(F)(F)CO)c1F [Example 146, N-[(1R)-1-[3-(1,1-difluoro-2-hydroxy-ethyl)-2-fluoro-phenyl]ethyl]-6-oxo-1-(3-pyridyl)pyridazine-3-carboxamide]
> 6.00	C[C@@H](NC(=O)c1ccc(=O)n(-c2cccnc2F)c1)c1cccc(C(F)(F)CO)c1F [Example 147, N-[(1R)-1-[3-(1,1-difluoro-2-hydroxy-ethyl)-2-fluoro-phenyl]ethyl]-1-(2-fluoro-3-pyridyl)-6-oxo-pyridine-3-carboxamide]
> 6.00	Cc1ncc(-n2nc(C(=O)N[C@H](C)c3cc(N)cc(C(F)(F)F)c3)ccc2=O)cn1 [Example 161, N-[(1R)-1-[3-amino-5-(trifluoromethyl)phenyl]ethyl]-1-(2-methylpyrimidin-5-yl)-6-oxo-pyridazine-3-carboxamide]
> 6.00	C[C@@H](NC(=O)c1ccc(=O)n(-c2ccncc2)c1)c1cccc(C(F)(F)CO)c1F [Example 162, N-[(1R)-1-[3-(1,1-difluoro-2-hydroxy-ethyl)-2-fluoro-phenyl]ethyl]-6-oxo-1-(4-pyridyl)pyridine-3-carboxamide]
> 6.00	C[C@@H](NC(=O)c1ccc(=O)n(-c2ccncc2)c1)c1cc(N)cc(C(F)(F)F)c1 [Example 163, N-[(1R)-1-[3-amino-5-(trifluoromethyl)phenyl]ethyl]-6-oxo-1-(4-pyridyl)pyridine-3-carboxamide]
> 6.00	C[C@@H](NC(=O)c1ccc(=O)n(-c2cnn(C)c2)c1)c1cccc(C(F)(F)CO)c1F [Example 164, N-[(1R)-1-[3-(1,1-difluoro-2-hydroxy-ethyl)-2-fluoro-phenyl]ethyl]-1-(1-methylpyrazol-4-yl)-6-oxo-pyridine-3-carboxamide]
> 6.00	C[C@@H](NC(=O)c1ccc(=O)n(-c2cnn(C)c2)c1)c1cc(N)cc(C(F)(F)F)c1 [Example 165, N-[(1R)-1-[3-amino-5-(trifluoromethyl)phenyl]ethyl]-1-(1-methylpyrazol-4-yl)-6-oxo-pyridine-3-carboxamide]
> 6.00	C[C@@H](NC(=O)c1ccc(=O)n(-c2cccc(C(=O)N(C)C)c2)c1)c1cc(N)cc(C(F)(F)F)c1 [Example 166, N-[(1R)-1-[3-amino-5-(trifluoromethyl)phenyl]ethyl]-1-[3-(dimethylcarbamoyl)phenyl]-6-oxo-pyridine-3-carboxamide]
> 6.00	C[C@@H](NC(=O)c1ccc(=O)n(-c2cccc(S(C)(=O)=O)c2)c1)c1cc(N)cc(C(F)(F)F)c1 [Example 167, N-[(1R)-1-[3-amino-5-(trifluoromethyl)phenyl]ethyl]-1-(3-methylsulfonylphenyl)-6-oxo-pyridine-3-carboxamide]
> 6.00	COc1ccccc1-n1cc(C(=O)N[C@H](C)c2cc(N)cc(C(F)(F)F)c2)ccc1=O [Example 168, N-[(1R)-1-[3-amino-5-(trifluoromethyl)phenyl]ethyl]-1-(2-methoxyphenyl)-6-oxo-pyridine-3-carboxamide]
> 6.00	C[C@@H](NC(=O)c1ccc(=O)n(-c2cccc(CO)c2)n1)c1cc(N)cc(C(F)(F)F)c1 [Example 169, N-[(1R)-1-[3-amino-5-(trifluoromethyl)phenyl]ethyl]-1-[3-(hydroxymethyl)phenyl]-6-oxo-pyridazine-3-carboxamide]
> 6.00	C[C@@H](NC(=O)c1ccc(=O)n(-c2cccc(CO)c2)n1)c1cccc(C(F)(F)CO)c1F [Example 170, N-[(1R)-1-[3-(1,1-difluoro-2-hydroxy-ethyl)-2-fluoro-phenyl]ethyl]-1-[3-(hydroxymethyl)phenyl]-6-oxo-pyridazine-3-carboxamide]
> 6.00	C[C@@H](O)c1cccc(-n2nc(C(=O)N[C@H](C)c3cc(N)cc(C(F)(F)F)c3)ccc2=O)c1 [Example 173, N-[(1R)-1-[3-amino-5-(trifluoromethyl)phenyl]ethyl]-1-[3-[(1R)-1-hydroxyethyl]phenyl]-6-oxo-pyridazine-3-carboxamide]
> 6.00	C[C@H](O)c1cccc(-n2nc(C(=O)N[C@H](C)c3cc(N)cc(C(F)(F)F)c3)ccc2=O)c1 [Example 174, N-[(1R)-1-[3-amino-5-(trifluoromethyl)phenyl]ethyl]-1-[3-[(1S)-1-hydroxyethyl]phenyl]-6-oxo-pyridazine-3-carboxamide]
5.00 to 6.00	C[C@@H](NC(=O)c1ccc(=O)n(-c2cccnc2)c1)c1cccc(C(F)(F)CO)c1F [Example 175, N-[(1R)-1-[3-(1,1-difluoro-2-hydroxy-ethyl)-2-fluoro-phenyl]ethyl]-6-oxo-1-(3-pyridyl)pyridine-3-carboxamide]
< 5.00	C[C@@H](NC(=O)c1ccc(=O)n(-c2cccnc2)c1)c1cc(N)cc(C(F)(F)F)c1 [Example 176, N-[(1R)-1-[3-amino-5-(trifluoromethyl)phenyl]ethyl]-6-oxo-1-(3-pyridyl)pyridine-3-carboxamide]
> 6.00	COc1ccc(F)c(-n2cc(C(=O)N[C@H](C)c3cccc(C(F)(F)CO)c3F)ccc2=O)c1 [Example 177, N-[(1R)-1-[3-(1,1-difluoro-2-hydroxy-ethyl)-2-fluoro-phenyl]ethyl]-1-(2-fluoro-5-methoxyphenyl)-6-oxo-pyridine-3-carboxamide]
> 6.00	COc1ccc(F)c(-n2cc(C(=O)N[C@H](C)c3cc(N)cc(C(F)(F)F)c3)ccc2=O)c1 [Example 178, N-[(1R)-1-[3-amino-5-(trifluoromethyl)phenyl]ethyl]-1-(2-fluoro-5-methoxy-phenyl)-6-oxo-pyridine-3-carboxamide]
> 6.00	COc1ccc(-n2cc(C(=O)N[C@H](C)c3cccc(C(F)(F)CO)c3F)ccc2=O)c(F)c1 [Example 179, N-[(1R)-1-[3-(1,1-difluoro-2-hydroxy-ethyl)-2-fluoro-phenyl]ethyl]-1-(2-fluoro-4-methoxyphenyl)-6-oxo-pyridine-3-carboxamide]
> 6.00	COc1ccc(-n2cc(C(=O)N[C@H](C)c3cc(N)cc(C(F)(F)F)c3)ccc2=O)c(F)c1 [Example 180, N-[(1R)-1-[3-amino-5-(trifluoromethyl)phenyl]ethyl]-1-(2-fluoro-4-methoxy-phenyl)-6-oxo-pyridine-3-carboxamide]
> 6.00	C[C@@H](NC(=O)c1ccc(=O)n(-c2ccccc2F)c1)c1cccc(C(F)(F)CO)c1F [Example 181, N-[(1R)-1-[3-(1,1-difluoro-2-hydroxy-ethyl)-2-fluoro-phenyl]ethyl]-1-(2-fluorophenyl)-6-oxo-pyridine-3-carboxamide]
> 6.00	COc1ccc(F)c(-n2nc(C(=O)N[C@H](C)c3cccc(C(F)(F)CO)c3F)ccc2=O)c1 [Example 182, N-[(1R)-1-[3-(1,1-difluoro-2-hydroxy-ethyl)-2-fluoro-phenyl]ethyl]-1-(2-fluoro-5-methoxyphenyl)-6-oxo-pyridazine-3-carboxamide]
> 6.00	COc1ccc(F)c(-n2nc(C(=O)N[C@H](C)c3cc(N)cc(C(F)(F)F)c3)ccc2=O)c1 [Example 183, N-[(1R)-1-[3-amino-5-(trifluoromethyl)phenyl]ethyl]-1-(2-fluoro-5-methoxy-phenyl)-6-oxo-pyridazine-3-carboxamide]
> 6.00	COc1cccc(-n2nc(C(=O)N[C@H](C)c3cccc(C(F)(F)CO)c3F)ccc2=O)c1F [Example 184, N-[(1R)-1-[3-(1,1-difluoro-2-hydroxy-ethyl)-2-fluoro-phenyl]ethyl]-1-(2-fluoro-3-methoxyphenyl)-6-oxo-pyridazine-3-carboxamide]
> 6.00	COc1cccc(-n2nc(C(=O)N[C@H](C)c3cc(N)cc(C(F)(F)F)c3)ccc2=O)c1F [Example 185, N-[(1R)-1-[3-amino-5-(trifluoromethyl)phenyl]ethyl]-1-(2-fluoro-3-methoxy-phenyl)-6-oxo-pyridazine-3-carboxamide]
